# pIC50: −log10 of the molar value.
# Tested on: Endogenous Huntingtin Protein
# Test: Endogenous Huntingtin Protein Assay (ELISA-based Meso Scale Discovery electrochemiluminescence)
# Type: cell-based
# Settings: MSD electrochemiluminescence, Table 1
# Outline: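 Huntingtin was captured overnight at 4 °C on plates coated with 1 μg/mL MW1 (polyQ-expanded) or MAB2166 antibody and BSA-blocked. Detection used a rabbit monoclonal and then a SULFO-TAG goat anti-rabbit antibody (0.25 μg/mL, 1 h each, room temperature). Signal was read by electrochemiluminescence.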
row,SMILES,pIC50
1,"Cc1cc(-c2ccc(-c3cnc(N(C)C4CC(C)(C)NC(C)(C)C4)nn3)c(O)c2)ccn1 [Cpd 9, 5-(2-methylpyridin-4-yl)-2-{3-[methyl(2,2,6,6-tetramethylpiperidin-4-yl)amino]-1,2,4-triazin-6-yl}phenol]",≥ 7.00
2,"Cc1csc(-c2ccc(-c3cnc(N(C)C4CC(C)(C)NC(C)(C)C4)nn3)c(O)c2)c1 [Cpd 54, 2-{3-[methyl(2,2,6,6-tetramethylpiperidin-4-yl)amino]-1,2,4-triazin-6-yl}-5-(4-methylthiophen-2-yl)phenol]",< 6.30
3,"CN(c1cnc(-c2ccc(-c3ccncc3)cc2O)nn1)C1CC(C)(C)NC(C)(C)C1 [Cpd 382, 2-{6-[methyl(2,2,6,6-tetramethylpiperidin-4-yl)amino]-1,2,4-triazin-3-yl}-5-(pyridin-4-yl)phenol]",≥ 7.00

# Source: US11780839B2, “Compounds for treating Huntington's disease” (PTC THERAPEUTICS, INC., priority 2018, dated 2023)
